Measurements taken from ChEMBL document CHEMBL1201862, “PubChem BioAssay data set” (2004).
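Values below derive from 48-hour exposures of cells grown in 96-well plates, with endpoints linearly interpolated between the two concentrations bracketing the appropriate inhibition level. Abbreviation: GI50, concentration required for 50% inhibition of growth.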 Calls of active or inactive are those of the source. Rule as the data show it: active = GI50 up to about 1.1 µM and inactive = higher.

What was measured:
Assay in all cases: NCI anticancer screen, dose series, 48 h
[1] = test system: SNB-78
[2] = test system: M19-MEL
[3] = test system: HOP-18
[4] = test system: DLD-1
[5] = test system: DMS-114
[6] = test system: RXF 631
[7] = test system: MDA-N
[8] = test system: T47D
[9] = test system: Hs-578T

Measured: GI50

CC(=O)NNc1nc(C)c(C(=O)NNC(=O)C(=O)Nc2ccc(Cl)cc2)s1
inactive: [1] > 100 µM | [2] > 100 µM

CN(NC1OC(CO)C(O)C(O)C1O)c1ccccc1 (stereo not drawn)
inactive: [3] > 100 µM | [1] > 100 µM | [2] > 100 µM | [4] > 100 µM

COc1cccc(-c2nccc3c(OCc4ccccc4)c(OC)c(OC)cc23)c1
inactive: [1] 63.1 µM | [2] > 100 µM | [5] 35.6 µM | [4] 7.74 µM

O=C(/C=C/c1ccccc1O)c1cccs1
inactive: [3] 57.7 µM | [1] > 100 µM | [2] > 100 µM | [6] > 100 µM | [4] > 100 µM

Cc1nc(N)nn1C1OCC(O)C(O)C1O (stereo not drawn)
inactive: [1] > 100 µM | [5] > 100 µM | [4] > 100 µM

COCC1N=C(c2ccc(OC)c(OCc3ccccc3)c2OC)O[C@H]1c1ccccc1 (stereo partly drawn)
inactive: [1] 29.1 µM | [2] 17.4 µM | [5] 12.2 µM | [4] 20.6 µM

Cc1nc(-c2nc([N+](=O)[O-])c([N+](=O)[O-])[nH]2)cs1
inactive: [1] > 100 µM | [2] > 100 µM | [5] > 100 µM | [6] > 100 µM | [4] > 100 µM

O=C1c2cc3c(cc2[C@@H]2C(O)[C@H]4O[C@H]4C4CCN1C42)OCO3 (stereo partly drawn)
inactive: [5] > 37.5 µM

C[N+](C)(C)CC1CCc2ccccc2C1=O (stereo not drawn)
inactive: [1] 23.4 µM | [7] 5.86 µM | [8] 6.53 µM | [9] 13.7 µM | [2] 16 µM | [5] 13.5 µM | [4] 4.86 µM

CCCCCCCC/C=C\CCCCCCCC(=O)O [OLEIC ACID]
inactive: [3] > 500 µM | [1] 68.7 µM | [2] 101 µM | [5] 97.7 µM | [4] 148 µM

O=C1c2ccccc2C(=O)N1CCn1nc(-c2ccccc2)cc(-c2ccccc2)c1=O
inactive: [3] 42.6 µM | [1] > 100 µM | [2] 69.3 µM | [5] > 100 µM | [6] 27.7 µM | [4] > 100 µM

O=C1NN=C(c2ccc([N+](=O)[O-])cc2)C1n1nc(-c2ccccc2)c2ccccc2c1=O (stereo not drawn)
inactive: [3] > 100 µM | [1] > 100 µM | [2] > 100 µM | [6] > 100 µM | [4] > 50.7 µM

O=C1C(=O)N(c2cc(Cl)ccc2Cl)C(=O)C(=O)C1c1nc2ccccc2o1
inactive: [3] 63.1 µM | [1] > 100 µM | [2] > 100 µM | [5] > 89.1 µM | [6] > 100 µM | [4] > 100 µM

COCCOCCOCCOc1cccc2c1C(=O)c1cccc(OCCOCCOCCOC)c1C2=O
inactive: [3] > 100 µM | [1] > 100 µM | [2] > 100 µM | [5] > 100 µM | [6] > 100 µM | [4] > 100 µM
